Where two headings read alike, the source gives them in different places.

This is an account of results in PMC7247561, “Characterization of ABC Transporters in EpiAirway™, a Cellular Model of Normal Human Bronchial Epithelium” (International Journal of Molecular Sciences, 2020).

The target in data set [1] is T1, BCRP (Homo sapiens, UniProt Q9UNQ0).
T1 sequence (Q9UNQ0 1-655): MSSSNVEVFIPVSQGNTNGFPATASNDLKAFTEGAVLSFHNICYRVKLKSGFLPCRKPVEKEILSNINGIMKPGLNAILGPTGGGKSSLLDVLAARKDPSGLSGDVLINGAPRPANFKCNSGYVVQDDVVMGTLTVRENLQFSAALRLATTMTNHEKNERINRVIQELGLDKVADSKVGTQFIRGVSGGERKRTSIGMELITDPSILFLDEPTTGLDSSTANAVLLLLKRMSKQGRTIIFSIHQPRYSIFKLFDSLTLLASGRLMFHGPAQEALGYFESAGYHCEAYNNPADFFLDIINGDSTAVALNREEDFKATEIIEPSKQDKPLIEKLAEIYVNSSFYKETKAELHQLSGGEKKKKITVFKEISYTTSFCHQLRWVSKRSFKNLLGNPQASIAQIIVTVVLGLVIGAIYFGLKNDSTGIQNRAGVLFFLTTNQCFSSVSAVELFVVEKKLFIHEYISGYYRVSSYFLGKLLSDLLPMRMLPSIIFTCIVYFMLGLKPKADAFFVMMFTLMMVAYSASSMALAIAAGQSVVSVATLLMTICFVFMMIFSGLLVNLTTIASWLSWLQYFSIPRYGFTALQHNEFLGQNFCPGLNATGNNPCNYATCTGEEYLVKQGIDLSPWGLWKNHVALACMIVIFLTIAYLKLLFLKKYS
Method: (§2) The activity of ABC transporters was assessed by measuring the apical-to-basolateral (AB) and basolateral-to-apical (BA) fluxes of specific substrates. To this aim, cell monolayers were washed twice in HBSS and equilibrated for 30 min in the same solution (pH 7.4, 37 °C). […] Aliquots of the solution in the receiver chamber were collected after 0 min, 30 min, 60 min and 120 min and replaced with fresh HBSS. The fluxes were determined by measuring fluorescence with an EnSpire® Multimode Plate Reader (Perkin Elmer), or radioactivity with MicroBeta^2 liquid scintillation spectrometer. Data obtained were employed to calculate the apparent permeability coefficient (Papp). The integrity of cell monolayers, verified by measuring TEER before and after the experiment, was not modified by the experimental procedures.
(§3) Efflux ratio (ER) was calculated as the ratio between Papp measured for BA and AB fluxes, while uptake ratio (UR) was calculated as the ratio between Papp measured for AB and BA fluxes.

Data set [2] concerns the target T1, BCRP. Kind of data set: BCRP activity, bidirectional transport of 3H-mitoxantrone in EpiAirway. To be noted: 21 d at ALI, 10 µM Febuxostat.
Method: as §2, §3
Data set [3] relates to MDR1. Kind of data set: MDR1 activity, bidirectional transport of Rhodamine 123 in EpiAirway. The format is in vitro ADME, human.
The target of data set [4] is T2, MDR1 (Homo sapiens, UniProt P08183).
T2 construct: MDR1 in Calu-3 cultures is expressed and operative on the apical membrane of the cells only after 21 d at ALI; endogenous in cells; host or cells: Calu-3 cells at air-liquid interface, 8 d or 21 d
The data set is described as follows: MDR1 activity, bidirectional transport of Rhodamine 123 in Calu-3. The following applies: 1 µM Rhodamine 123. The format is in vitro ADME.
Method: as §2, §3

The target of the next data set is T3, MDR1 (P-glycoprotein) (Homo sapiens, UniProt P08183).
T3 construct: MDR1 in Calu-3 cultures is expressed and operative on the apical membrane of the cells only after 21 d at ALI; endogenous in cells; host or cells: Calu-3 cells at air-liquid interface, 8 d or 21 d
The data set is described as above. Type of data set: in vitro ADME. The following applies: human, Calu-3, 21 d at ALI.

The next data set relates to Calu-3 cells. Kind of data set: Paracellular and transcellular permeability (apical-to-basolateral Papp) in Calu-3. To be noted: Calu-3, after 21 d at ALI, AB flux, 20 µM 14C-mannitol. Type of data set: in vitro ADME, human. How it is done: (§1) In parallel, the paracellular and transcellular permeability of cultures to solutes was assessed by monitoring the apical-to-basolateral fluxes of ^14C-mannitol and ^3H-propranolol, respectively. In detail, cell monolayers were washed and incubated for 30 min in Hank’s Balanced Salt Solution (HBSS, pH 7.4, 37 °C); HBSS containing ^14C-mannitol (1 µCi/mL, corresponding to 20 µM) or ^3H-propranolol (3 µCi/mL; 10 µM) was then added to the apical side (donor chamber) of the monolayers.

Another data set concerns EpiAirway™. The format is in vitro ADME, human. How it is done:
as §1

T2 sequence (P08183 whole entry): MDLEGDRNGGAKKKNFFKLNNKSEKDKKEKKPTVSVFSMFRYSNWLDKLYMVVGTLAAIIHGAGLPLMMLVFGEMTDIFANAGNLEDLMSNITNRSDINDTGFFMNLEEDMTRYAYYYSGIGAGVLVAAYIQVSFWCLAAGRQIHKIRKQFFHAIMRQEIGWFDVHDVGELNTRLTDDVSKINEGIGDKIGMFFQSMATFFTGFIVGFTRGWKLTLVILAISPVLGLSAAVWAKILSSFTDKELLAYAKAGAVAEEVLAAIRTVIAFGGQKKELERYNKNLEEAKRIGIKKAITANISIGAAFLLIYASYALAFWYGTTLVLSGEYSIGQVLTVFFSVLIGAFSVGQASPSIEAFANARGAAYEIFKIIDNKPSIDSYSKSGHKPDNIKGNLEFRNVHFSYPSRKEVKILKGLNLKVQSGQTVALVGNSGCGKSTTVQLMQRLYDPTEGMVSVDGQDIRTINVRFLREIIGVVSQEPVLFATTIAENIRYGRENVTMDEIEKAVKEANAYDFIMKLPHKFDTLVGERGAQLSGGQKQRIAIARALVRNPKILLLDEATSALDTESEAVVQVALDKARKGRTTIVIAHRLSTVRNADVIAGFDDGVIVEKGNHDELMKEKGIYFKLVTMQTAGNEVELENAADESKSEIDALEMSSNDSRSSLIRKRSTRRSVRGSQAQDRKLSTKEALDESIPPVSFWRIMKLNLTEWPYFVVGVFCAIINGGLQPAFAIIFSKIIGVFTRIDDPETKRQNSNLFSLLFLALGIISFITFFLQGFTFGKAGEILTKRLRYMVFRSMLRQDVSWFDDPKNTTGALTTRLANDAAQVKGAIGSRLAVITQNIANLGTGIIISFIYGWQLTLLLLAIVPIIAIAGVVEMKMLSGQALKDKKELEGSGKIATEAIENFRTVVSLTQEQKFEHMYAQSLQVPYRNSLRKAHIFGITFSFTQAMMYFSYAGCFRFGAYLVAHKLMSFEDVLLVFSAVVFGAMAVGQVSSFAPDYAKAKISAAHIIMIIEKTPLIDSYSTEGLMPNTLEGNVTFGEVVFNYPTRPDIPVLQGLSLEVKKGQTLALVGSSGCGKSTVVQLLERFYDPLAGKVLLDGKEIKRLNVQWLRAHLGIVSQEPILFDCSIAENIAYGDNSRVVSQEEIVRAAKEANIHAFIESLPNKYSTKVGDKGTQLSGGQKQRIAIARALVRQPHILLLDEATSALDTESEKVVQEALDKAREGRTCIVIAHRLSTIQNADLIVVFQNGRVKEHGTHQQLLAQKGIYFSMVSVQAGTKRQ
T3 sequence (P08183 whole entry): as above
Method for MDR1 (P-glycoprotein): as §2, §3

Take `Cc1nc(-c2ccc(OCC(C)C)c(C#N)c2)sc1C(=O)O` [Febuxostat]: at BCRP [1], the “effect of inhibitor on Papp for AB flux of 3H-mitoxantrone” value is on record as “modest but significant decrease”. Also, at BCRP [2], the “effect of inhibitor on BA flux of 3H-mitoxantrone” value is “remained almost unaffected” and the “effect of inhibitor on uptake ratio (UR) of 3H-mitoxantrone” value is “slight decrease”.
Take `C/C=C/C[C@@H](C)C(=O)[C@H]1C(=O)N[C@@H](C(C)C)C(=O)N(C)CC(=O)N(C)[C@@H](CC(C)C)C(=O)N[C@@H](C(C)C)C(=O)N(C)[C@@H](CC(C)C)C(=O)N[C@@H](C)C(=O)N[C@H](C)C(=O)N(C)[C@@H](CC(C)C)C(=O)N(C)[C@@H](CC(C)C)C(=O)N(C)[C@@H](C(C)C)C(=O)N1C` [PSC833]: the “effect of inhibitor on Rhodamine 123 fluxes” value with MDR1 [3] (8 d and 21 d at ALI, 10 µM PSC833) is “lack of inhibition”.
For the compound `COC(=O)c1ccccc1-c1c2ccc(=N)cc-2oc2cc(N)ccc12` [Rhodamine 123], the “Papp for AB vs BA fluxes” value on MDR1 [4] (Calu-3, 8 d at ALI) is reported as “comparable”. Further, at MDR1 [4] (Calu-3, 21 d at ALI), the “Papp for BA transport vs AB flux” value is “hugely higher than that of AB flux”. Moreover, the efflux ratio at 120 min, 1 µM at MDR1 (P-glycoprotein) (pH 7.4, probe Rhodamine 123, with PSC833 10 µM, 1 µM Rhodamine 123, + 10 µM PSC833, read-out: efflux ratio (ER) in the presence of the inhibitor) stood at 2.8; on MDR1 (P-glycoprotein) (pH 7.4, probe Rhodamine 123, 1 µM Rhodamine 123, control (no inhibitor), read-out: efflux ratio (ER)), 7. For the same compound, the “AB vs BA fluxes” value in the data set on MDR1 [3] (8 d and 21 d at ALI, 1 µM Rhodamine 123) was “no differences”. The “values of Papp and ER” value in the data set on MDR1 [3] (Rhodamine 123 fluxes) is “very low”.
With `OC[C@@H](O)[C@@H](O)[C@H](O)[C@H](O)CO` [mannitol], in the data set on Calu-3 cells, the “Papp for mannitol, 21 d vs 8 d of culture” value is “decreased”. The “mannitol permeability (Papp), 8 d vs 21 d of culture” value with EpiAirway™ is reported as “no difference”.
On to `CC(C)NCC(O)COc1cccc2ccccc12` (stereo not shown) [propranolol], for which, in the data set on EpiAirway™ (human, 120 min, 10 µM, pH 7.4), the “propranolol permeability (Papp), EpiAirway vs Calu-3” value was “slightly higher than that of Calu-3 cells”.
